Assay results published in US20110263454A1, “Methods of Identifying Functional Characteristics of Promoters, Transcription Modifying Proteins and Transcription Modulating Agents” (Salk Institute for Biological Studies, priority 2008, published 2011).

Key:
[1] = tested on: Bmal1 promoter; test: NHR-promoter luciferase screen, Bmal1 promoter; format: cell-based, mouse; details: for Luc. act., normalized to lacZ / Normalized Luc. act., normalized to control: Bmal1 promoter, HR component without or with ligand; for mBmal1 promoter reporter activity: transcription factor +/- ligand, control = 1.00
Method: (§1) The use, feasibility, and reproducibility of the functional NHR-promoter screen in a 48-well format have been tested validated. Briefly, there were co-expressed 50 ng of each NHR/NHR homodimer or NHR/RXR heterodimer with 100 ng promoter/luciferase construct and 50 ng of LacZ (as a control for transfection efficiency) in CV-1 cells using Fugene HD (Roche) as a transfection reagent (alternatively or additionally, a CMV-YFP construct can be used as a transfection control). Each of the nuclear hormone receptors that were used in these experiments was cloned into a pcDNA3.1 vector and comprised a C-terminally linked V5H6 tag. Twenty-four hours after transfection, appropriate ligands were added, where applicable, (see Table 5 for various ligands and concentrations and after 48 hrs, samples were assayed for luciferase and LacZ activity. To measure for luciferase activity 15 ul of sample was added to 30 ul of luciferase buffer (20 mM tricine, 1.07 mM MgCarbonate, 2.67 mM MgSulfate, 0.1 mM Naz-EDTA, 5 mM DTT, 5 mM ATP, 0.15 mg/ml CoA, 0.5 mM Luciferin), mixed briefly, and run in a Perkin Elmer Victor 5 luminometer. Thus, the functional NHR-promoter screen was used to observe the transcriptional activity of 29 promoters from various physiological pathways including inflammation, lipid and sugar metabolism, cholesterol transport, xenobiotic metabolism, and circadian rhythm.
(§2) The promoters that facilitate transcription of the indicated gene products that were tested using the protocols described herein are listed in the first row of the table. The nuclear hormone receptors and, where applicable, ligands that were assayed for their transcriptional effects on the promoters are listed in the first column of the table. The data represent the luciferase activity of each sample normalized to both the lacZ activity of that sample and to a control, e.g., no NHR or ligand, as customary in the art. As described previously, these normalizations allow the transcriptional activity of each reporter cell to be compared to other samples.
(§3) Tables 7-40 show the transcriptional effects of the hormone receptors, and, where applicable, ligands (orphan receptors are screened without ligand), on each individual promoter. […] The control data of each table are shown in their last rows.

[2] = tested on: hG6PD promoter; test: NHR-promoter luciferase screen, hG6PD promoter; format: cell-based, human; details: for Luc. act., normalized to lacZ / Normalized Luc. act., normalized to control: G6PD promoter reporter, co-transfected HR, without or with its ligand; for Normalized Luc. act., normalized to control: relative to control; for luciferase activity normalized to lacZ activity and to a control, hG6PD: hG6PD promoter-luciferase, CV-1 cells, NHR +/- ligand, control = 1.00
Method: as §1, §2, §3

[3] = tested on: hPPARg2 promoter; test: NHR-promoter luciferase screen, hPPARg2 promoter; format: cell-based, human; details: for Luc. act., normalized to lacZ / Normalized Luc. act., normalized to control: PPARG2 promoter, hormone receptor with or without its ligand; for Normalized Luc. act., normalized to control: relative to control; for Results of assays of transcription factor (+/- ligand) with hPPARg2: Table 6d, luciferase activity relative to control (control = 1.00)
Method: as §1, §2, §3

[4] = tested on: hTNFa promoter; test: NHR-promoter luciferase screen, hTNFa promoter; format: cell-based, human; details: for Luc. act., normalized to lacZ / Normalized Luc. act., normalized to control: TNFa promoter, HR component without or with ligand; for hTNFa promoter reporter activity: transcription factor +/- ligand, control = 1.00
Method: as §1, §2, §3

[5] = tested on: mABCA1 promoter; test: NHR-promoter luciferase screen, mABCA1 promoter; format: cell-based, mouse; details: for Luc. act., normalized to lacZ / Normalized Luc. act., normalized to control: ABCA1 promoter, hormone receptor with or without its ligand; for Normalized Luc. act., normalized to control: relative to control; for mABCA1 promoter reporter activity: transcription factor +/- ligand, control = 1.00
Method: as §1, §2, §3

[6] = tested on: mNPY promoter; test: NHR-promoter luciferase screen, mNPY promoter; format: cell-based, mouse; details: for Results of assays of transcription factor (+/- ligand) with mNPY: Table 6d, luciferase activity relative to control (control = 1.00); for Luc. act., normalized to lacZ / Normalized Luc. act., normalized to control: mNPY promoter, HR component with or without ligand; for Normalized Luc. act., normalized to control: relative to control
Method: as §1, §2, §3

Substance | Luc. act., normalized to lacZ [1] | Normalized Luc. act., normalized to control [1] | mBmal1 promoter reporter activity [1] | Luc. act., normalized to lacZ [2] | Normalized Luc. act., normalized to control [2] | luciferase activity normalized to lacZ activity and to a control, hG6PD [2] | Luc. act., normalized to lacZ [3] | Normalized Luc. act., normalized to control [3] | Results of assays of transcription factor (+/- ligand) with hPPARg2 [3] | Luc. act., normalized to lacZ [4] | Normalized Luc. act., normalized to control [4] | hTNFa promoter reporter activity [4] | Luc. act., normalized to lacZ [5] | Normalized Luc. act., normalized to control [5] | mABCA1 promoter reporter activity [5] | Results of assays of transcription factor (+/- ligand) with mNPY [6] | Luc. act., normalized to lacZ [6] | Normalized Luc. act., normalized to control [6]
GR: Glucocorticoid Receptor (NR3C1), cDNA driver | 13.2 | 0.8 | 0.84 | 22.3 | 0.6 | 0.60 | 2.3 | 1.1 | 1.15 | 463.3 | 0.5 | 0.47 | 8.5 | 1.5 | 1.52 | 0.57 | 47.8 | 0.6
NR4a1: NR4a1 (NR4A1; NUR77), nuclear hormone receptor cDNA driver | 15.7 | 1.0 | 1.00 | 77.6 | 2.1 | 2.07 | 1.6 | 0.8 | 0.81 | 1575.8 | 1.6 | 1.60 | 11.4 | 2.0 | 2.04 | 0.92 | 77.0 | 0.9
AR: Androsterone Receptor (NR3C4), cDNA driver | 13.5 | 0.9 | 0.86 | 41.5 | 1.1 | 1.11 | 2.7 | 1.3 | 1.34 | 1019.9 | 1.0 | 1.04 | 8.3 | 1.5 | 1.48 | 1.12 | 93.8 | 1.1
PNR: Photoreceptor-specific Nuclear Receptor (NR2E3), cDNA driver | 7.6 | 0.5 | 0.49 | 45.9 | 1.2 | 1.23 | 1.0 | 0.5 | 0.51 | 558.4 | 0.6 | 0.57 | 9.9 | 1.8 | 1.76 | 2.00 | 168.3 | 2.0
TLX: Tailless (homolog of drosophila) (NR2E1), cDNA driver | 12.2 | 0.8 | 0.78 | 107.9 | 2.9 | 2.89 | 0.9 | 0.4 | 0.43 | 1085.1 | 1.1 | 1.10 | 21.8 | 3.9 | 3.88 | 1.11 | 93.5 | 1.1
SF-1: Steroidogenic Factor 1 (NR5A1, SF1), cDNA driver | 11.4 | 0.7 | 0.73 | 124.1 | 3.3 | 3.32 | 2.2 | 1.1 | 1.09 | 1900.9 | 1.9 | 1.93 | 34.4 | 6.1 | 6.12 | 2.12 | 177.6 | 2.1
PPARa: Peroxisome proliferator activated receptor α (NR1C1), cDNA driver | 8.1 | 0.5 | 0.52 | 55.6 | 1.5 | 1.49 | 2.4 | 1.2 | 1.20 | 1107.9 | 1.1 | 1.13 | 10.7 | 1.9 | 1.90 | 0.62 | 51.7 | 0.6
PPARg: Peroxisome proliferator activated receptor γ (NR1C3), cDNA driver | 13.8 | 0.9 | 0.88 | 66.0 | 1.8 | 1.77 | 2.2 | 1.1 | 1.08 | 1345.4 | 1.4 | 1.37 | 14.4 | 2.6 | 2.56 | 1.14 | 95.6 | 1.1
ERR1: Estrogen Related Receptor α (NR3B1, ERRa), cDNA driver | 13.6 | 0.9 | 0.87 | 59.1 | 1.6 | 1.58 | 1.7 | 0.8 | 0.84 | 1234.7 | 1.3 | 1.26 | 8.2 | 1.5 | 1.47 | 0.83 | 69.6 | 0.8
VDR: Vitamin D Receptor (NR1I1), cDNA driver | 22.0 | 1.4 | 1.40 | 43.1 | 1.2 | 1.15 | 2.1 | 1.0 | 1.03 | 986.3 | 1.0 | 1.00 | 15.2 | 2.7 | 2.71 | 0.79 | 66.7 | 0.8
LXRa: Liver X Receptor α (NR1H3), cDNA driver | 19.7 | 1.3 | 1.26 | 60.5 | 1.6 | 1.62 | 1.3 | 0.6 | 0.64 | 994.6 | 1.0 | 1.01 | 93.0 | 16.6 | 16.56 | 0.67 | 56.2 | 0.7
